Assays:
Italian ryegrass [1] = assay: Test A postemergence; format: in vivo, Lolium multiflorum; conditions: 0 to 100 scale, 0 no effect, 100 complete control
In short: (§1)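 Greenhouse pot test, loam/sand soil. Formulation: non-phytotoxic solvent mix plus surfactant. Pre: directed spray onto soil after sowing. Post: plants at 1–2 leaf, 2–10 cm. Rated visually vs untreated controls at ~10 d, 0 (no effect) to 100 (complete control).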

pigweed [2] = assay: Test A postemergence; format: in vivo, Amaranthus retroflexus; conditions: 0 to 100 scale, 0 no effect, 100 complete control
In short: as §1

wheat = assay: Test A postemergence; format: in vivo, Triticum aestivum; conditions: 0 to 100 scale, 0 no effect, 100 complete control
In short: as §1

corn = assay: Test A postemergence; format: in vivo, Zea mays; conditions: 0 to 100 scale, 0 no effect, 100 complete control
In short: as §1

galium = assay: Test A postemergence; format: in vivo, Galium aparine; conditions: 0 to 100 scale, 0 no effect, 100 complete control
In short: as §1

rice = assay: Test B flooded paddy test; format: in vivo, Oryza sativa; conditions: Flood, 250 g ai/ha; 0 to 100 scale where 0 is no effect and 100 is complete control
In short: (§2)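 Greenhouse flooded-pot test: compounds dosed into 3 cm standing water over 2-leaf plants, flood held constant. Rated visually after 13–15 days on 0–100 (complete control = 100); a dash marks no test result.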

barnyardgrass [3] = assay: Test A postemergence; format: in vivo, Echinochloa crus-galli; conditions: 0 to 100 scale, 0 no effect, 100 complete control
In short: as §1

barnyardgrass [4] = assay: Test B flooded paddy test; format: in vivo, Echinochloa crus-galli; conditions: Flood, 250 g ai/ha; 0 to 100 scale where 0 is no effect and 100 is complete control
In short: as §2

Heteranthera limosa = assay: Test B flooded paddy test; format: in vivo; conditions: Flood, 250 g ai/ha; 0 to 100 scale where 0 is no effect and 100 is complete control
In short: as §2

Italian ryegrass [5] = assay: Test A preemergence; format: in vivo, Lolium multiflorum; conditions: for Plant response rating, Ryegrass, Italian: 31 g ai/ha, 0 to 100 scale where 0 is no effect and 100 is complete control, visual, approximately 10 days; for Ryegrass, Italian plant response rating (0 to 100 scale): 125 g ai/ha
In short: as §1

sedge, umbrella = assay: Test B flooded paddy test; format: in vivo, Cyperus difformis; conditions: Flood, 250 g ai/ha; 0 to 100 scale where 0 is no effect and 100 is complete control
In short: as §2

ragweed [6] = assay: Test A preemergence; format: in vivo, Ambrosia elatior; conditions: for Plant response rating, Ragweed: 31 g ai/ha, 0 to 100 scale where 0 is no effect and 100 is complete control, visual, approximately 10 days; for Ragweed plant response rating (0 to 100 scale): 125 g ai/ha
In short: as §1

blackgrass = assay: Test A postemergence; format: in vivo, Alopecurus myosuroides; conditions: 0 to 100 scale, 0 no effect, 100 complete control
In short: as §1

kochia [7] = assay: Test A preemergence; format: in vivo, Kochia scoparia; conditions: for Plant response rating, Kochia: 31 g ai/ha, 0 to 100 scale where 0 is no effect and 100 is complete control, visual, approximately 10 days; for Kochia plant response rating (0 to 100 scale): 125 g ai/ha
In short: as §1

giant foxtail [8] = assay: Test A postemergence; format: in vivo, Setaria faberii; conditions: 0 to 100 scale, 0 no effect, 100 complete control
In short: as §1

barnyardgrass [9] = assay: Test A preemergence; format: in vivo, Echinochloa crus-galli; conditions: for Plant response rating, Barnyardgrass: 31 g ai/ha, 0 to 100 scale where 0 is no effect and 100 is complete control, visual, approximately 10 days; for Barnyardgrass plant response rating (0 to 100 scale, 0 is no effect, 100 is complete control): 125 g ai/ha
In short: as §1

pigweed [10] = assay: Test A preemergence; format: in vivo, Amaranthus retroflexus; conditions: for Plant response rating, Pigweed: 31 g ai/ha, 0 to 100 scale where 0 is no effect and 100 is complete control, visual, approximately 10 days; for Pigweed plant response rating (0 to 100 scale): 125 g ai/ha
In short: as §1

ragweed [11] = assay: Test A postemergence; format: in vivo, Ambrosia elatior; conditions: 0 to 100 scale, 0 no effect, 100 complete control
In short: as §1

kochia [12] = assay: Test A postemergence; format: in vivo, Kochia scoparia; conditions: 0 to 100 scale, 0 no effect, 100 complete control
In short: as §1

giant foxtail [13] = assay: Test A preemergence; format: in vivo, Setaria faberii; conditions: for Plant response rating, Foxtail, Giant: 31 g ai/ha, 0 to 100 scale where 0 is no effect and 100 is complete control, visual, approximately 10 days; for Foxtail, Giant plant response rating (0 to 100 scale): 125 g ai/ha
In short: as §1

[14] = 1000 g ai/ha, 0 to 100 scale, 0 no effect, 100 complete control, approx. 10 days

`Fc1cnc(Oc2ccccc2-n2cc(OCC(F)(F)F)cn2)nc1` [Compound 241] was tested, and the “Plant response rating, Ryegrass, Italian” value (Italian ryegrass [1]; 31 g ai/ha) was 0, the “Plant response rating, Ryegrass, Italian” value (Italian ryegrass [1]; 125 g ai/ha) was 0 and the “Plant response rating, Pigweed” value (pigweed [2]; 31 g ai/ha) was 40. For the same compound, the “Plant response rating, Pigweed” value (pigweed [2]; 125 g ai/ha) was 80, the “Plant response rating, Wheat” value (wheat; 31 g ai/ha) was 0 and the “Plant response rating, Wheat” value (wheat; 125 g ai/ha) was 10. For the same compound, the “Plant response rating, Corn” value (corn; 31 g ai/ha) was 0, the “Plant response rating, Corn” value (corn; 125 g ai/ha) was 10 and the “Plant response rating, Galium” value (galium; 31 g ai/ha) was 40. For the same compound, the “Plant response rating, Galium” value (galium; 125 g ai/ha) was 60, the “Plant response rating, Rice” value (rice) was 0 and the “Plant response rating, Barnyardgrass” value (barnyardgrass [3]; 31 g ai/ha) was 0. For the same compound, the “Plant response rating, Barnyardgrass” value (barnyardgrass [3]; 125 g ai/ha) was 10, the “Plant response rating, Barnyardgrass” value (barnyardgrass [4]) was 0 and the “Plant response rating, Ducksalad” value (Heteranthera limosa) was 40. For the same compound, the “Plant response rating, Ryegrass, Italian” value (Italian ryegrass [5]) was 0, the “Ryegrass, Italian plant response rating (0 to 100 scale)” value (Italian ryegrass [5]) was 0 and the “Plant response rating, Sedge, Umbrella” value (sedge, umbrella) was 0. The “Plant response rating, Ragweed” value (ragweed [6]) was 0, the “Ragweed plant response rating (0 to 100 scale)” value (ragweed [6]) was 40 and the “Plant response rating, Blackgrass” value (blackgrass; 31 g ai/ha) was 0. For the same compound, the “Plant response rating, Blackgrass” value (blackgrass; 125 g ai/ha) was 20, the “Plant response rating, Kochia” value (kochia [7]) was 50 and the “Kochia plant response rating (0 to 100 scale)” value (kochia [7]) was 100. The “Plant response rating, Foxtail, Giant” value (giant foxtail [8]; 31 g ai/ha) was 0, the “Plant response rating, Foxtail, Giant” value (giant foxtail [8]; 125 g ai/ha) was 20 and the “Plant response rating, Barnyardgrass” value (barnyardgrass [9]) was 10. For the same compound, the “Barnyardgrass plant response rating (0 to 100 scale, 0 is no effect, 100 is complete control)” value (barnyardgrass [9]) was 60, the “Plant response rating, Pigweed” value (pigweed [10]) was 80 and the “Pigweed plant response rating (0 to 100 scale)” value (pigweed [10]) was 100. The “Plant response rating, Ragweed” value (ragweed [11]; 31 g ai/ha) was 10, the “Plant response rating, Ragweed” value (ragweed [11]; 125 g ai/ha) was 30 and the “Plant response rating, Kochia” value (kochia [12]; 31 g ai/ha) was 50. The “Plant response rating, Kochia” value (kochia [12]; 125 g ai/ha) was 90, the “Plant response rating, Foxtail, Giant” value (giant foxtail [13]) was 50 and the “Foxtail, Giant plant response rating (0 to 100 scale)” value (giant foxtail [13]) was 100.

For `N#Cc1cnn(-c2c(CF)cccc2Oc2ncc(Cl)cn2)c1` [Compound 242], the “Plant response rating, Ryegrass, Italian” value (Italian ryegrass [1]; 31 g ai/ha) was 0, the “Plant response rating, Ryegrass, Italian” value (Italian ryegrass [1]; 125 g ai/ha) was 30 and the “Plant response rating, Pigweed” value (pigweed [2]; 31 g ai/ha) was 30. For the same compound, the “Plant response rating, Pigweed” value (pigweed [2]; 125 g ai/ha) was 80, the “Plant response rating, Wheat” value (wheat; 31 g ai/ha) was 0 and the “Plant response rating, Wheat” value (wheat; 125 g ai/ha) was 60. For the same compound, the “Plant response rating, Corn” value (corn; 31 g ai/ha) was 0, the “Plant response rating, Corn” value (corn; 125 g ai/ha) was 60 and the “Plant response rating, Galium” value (galium; 31 g ai/ha) was 10. The “Plant response rating, Galium” value (galium; 125 g ai/ha) was 30, the “Plant response rating, Rice” value (rice) was 0 and the “Plant response rating, Barnyardgrass” value (barnyardgrass [3]; 31 g ai/ha) was 0. The “Plant response rating, Barnyardgrass” value (barnyardgrass [3]; 125 g ai/ha) was 60, the “Plant response rating, Barnyardgrass” value (barnyardgrass [4]) was 20 and the “Plant response rating, Ducksalad” value (Heteranthera limosa) was 70. For the same compound, the “Plant response rating, Ryegrass, Italian” value (Italian ryegrass [5]) was 0, the “Ryegrass, Italian plant response rating (0 to 100 scale)” value (Italian ryegrass [5]) was 0 and the “Plant response rating, Sedge, Umbrella” value (sedge, umbrella) was 75. For the same compound, the “Plant response rating, Ragweed” value (ragweed [6]) was 50, the “Ragweed plant response rating (0 to 100 scale)” value (ragweed [6]) was 80 and the “Plant response rating, Blackgrass” value (blackgrass; 31 g ai/ha) was 30. The “Plant response rating, Blackgrass” value (blackgrass; 125 g ai/ha) was 90, the “Plant response rating, Kochia” value (kochia [7]) was 30 and the “Kochia plant response rating (0 to 100 scale)” value (kochia [7]) was 100. For the same compound, the “Plant response rating, Foxtail, Giant” value (giant foxtail [8]; 31 g ai/ha) was 0, the “Plant response rating, Foxtail, Giant” value (giant foxtail [8]; 125 g ai/ha) was 50 and the “Plant response rating, Barnyardgrass” value (barnyardgrass [9]) was 20. The “Barnyardgrass plant response rating (0 to 100 scale, 0 is no effect, 100 is complete control)” value (barnyardgrass [9]) was 70, the “Plant response rating, Pigweed” value (pigweed [10]) was 90 and the “Pigweed plant response rating (0 to 100 scale)” value (pigweed [10]) was 100. The “Plant response rating, Ragweed” value (ragweed [11]; 31 g ai/ha) was 20, the “Plant response rating, Ragweed” value (ragweed [11]; 125 g ai/ha) was 50 and the “Plant response rating, Kochia” value (kochia [12]; 31 g ai/ha) was 30. For the same compound, the “Plant response rating, Kochia” value (kochia [12]; 125 g ai/ha) was 80, the “Plant response rating, Foxtail, Giant” value (giant foxtail [13]) was 100 and the “Foxtail, Giant plant response rating (0 to 100 scale)” value (giant foxtail [13]) was 100.

`COC(=O)c1cccc(Oc2ncc(Cl)cn2)c1-n1cc(C(F)(F)F)cn1` [Compound 248] was tested, and the “Plant response rating, Ryegrass, Italian” value (Italian ryegrass [1]; 1000 g ai/ha) was 50, the “Plant response rating, Pigweed” value (pigweed [2]; 1000 g ai/ha) was 100 and the “Plant response rating, Wheat” value (wheat; 1000 g ai/ha) was 20. The “Plant response rating, Corn” value (corn; 1000 g ai/ha) was 80, the “Plant response rating, Galium” value (galium; 1000 g ai/ha) was 100 and the “Plant response rating, Rice” value (rice) was 15. The “Plant response rating, Barnyardgrass” value (barnyardgrass [3]; 1000 g ai/ha) was 70, the “Plant response rating, Barnyardgrass” value (barnyardgrass [4]) was 0 and the “Plant response rating, Ducksalad” value (Heteranthera limosa) was 50. The “Ryegrass, Italian plant response rating” value (Italian ryegrass [5]; [14]) was 50, the “Plant response rating, Sedge, Umbrella” value (sedge, umbrella) was 70 and the “Ragweed plant response rating” value (ragweed [6]; [14]) was 40. For the same compound, the “Plant response rating, Blackgrass” value (blackgrass; 1000 g ai/ha) was 30, the “Kochia plant response rating” value (kochia [7]; [14]) was 100 and the “Plant response rating, Foxtail, Giant” value (giant foxtail [8]; 1000 g ai/ha) was 100. The “Barnyardgrass plant response rating” value (barnyardgrass [9]; [14]) was 80, the “Pigweed plant response rating” value (pigweed [10]; [14]) was 100 and the “Plant response rating, Ragweed” value (ragweed [11]; 1000 g ai/ha) was 50. For the same compound, the “Plant response rating, Kochia” value (kochia [12]; 1000 g ai/ha) was 90 and the “Foxtail, Giant plant response rating” value (giant foxtail [13]; [14]) was 100.

— US9695155B2, “Herbicidal substituted pyrimidinyloxy benzene compounds” (E. I. DU PONT DE NEMOURS AND COMPANY, priority 2013, dated 2017)
